Data from PubChem BioAssay (NCI).
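Step 1: Grow cells in 96-well plates. Step 2: Expose to compound for 48 hours at 5 concentrations. Step 3: Interpolate endpoints linearly; if unreached, use highest concentration. The concentration for full growth arrest is given as TGI.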

What was measured:
Assay in all cases: DTP human tumour cell line panel, 48 h
[1] = system: A549 NSCLC
[2] = system: ACHN renal
[3] = system: CAKI-1 renal
[4] = system: CCRF-CEM leukemia
[5] = system: DLD-1 colon
[6] = system: DMS 114 small cell lung
[7] = system: DMS 273 small cell lung
[8] = system: EKVX NSCLC
[9] = system: HCC-2998 colon
[10] = system: HCT-116 colon
[11] = system: HCT-15 colon
[12] = system: HL-60(TB) leukemia
[13] = system: HOP-18 NSCLC
[14] = system: HOP-62 NSCLC
[15] = system: HOP-92 NSCLC
[16] = system: HT29 colon
[17] = system: IGROV1 ovarian
[18] = system: K-562 leukemia
[19] = system: KM20L2 colon
[20] = system: LOX IMVI melanoma
[21] = system: LXFL 529 NSCLC
[22] = system: M14 melanoma
[23] = system: M19-MEL melanoma
[24] = system: MALME-3M melanoma
[25] = system: MOLT-4 leukemia
[26] = system: NCI-H226 lung
[27] = system: NCI-H23 lung
[28] = system: NCI-H460 lung
[29] = system: NCI-H522 lung
[30] = system: OVCAR-3 ovarian
[31] = system: OVCAR-4 ovarian
[32] = system: OVCAR-5 ovarian
[33] = system: OVCAR-8 ovarian
[34] = system: RPMI-8226 leukemia
[35] = system: RXF 393 renal
[36] = system: RXF-631 renal
[37] = system: SF-268 CNS
[38] = system: SF-295 CNS
[39] = system: SF-539 CNS
[40] = system: SK-MEL-2 melanoma
[41] = system: SK-MEL-5 melanoma
[42] = system: SK-OV-3 ovarian
[43] = system: SN12C renal
[44] = system: SNB-19 CNS
[45] = system: SNB-75 CNS
[46] = system: SNB-78 CNS
[47] = system: SR leukemia
[48] = system: SW-620 colon
[49] = system: TK-10 renal
[50] = system: U251 CNS
[51] = system: UACC-257 melanoma
[52] = system: UACC-62 melanoma
[53] = system: UO-31 renal
[54] = system: XF 498 CNS

Measured: TGI

COc1cc2c(cc1OC)C1Cc3sccc3CN1CC2 (centres undefined)
> 100 µM: all assays above
